# Source: patent US20160251625A1, “METHOD FOR SCALABLE SKELETAL MUSCLE LINEAGE SPECIFICATION AND CULTIVATION” (THE CURATORS OF THE UNIVERSITY OF MISSOURI, priority 2013, published 2016)
# Legend:
# undifferentiated O2KM = test: 5AC tolerance of undifferentiated O2KM; assay type: cell-based, porcine
# Experimental: (§1) 5AC exposure prior to, during, and following E2-mediated induction of ‘MyoDER’ was introduced to enable terminal-differentiation of O2KM from myocytes into refractive, filamentous myotubes. The murine C2C12 cell line was used as positive control to screen for optimal conditions for terminal differentiation by O2KM. […] 5AC, a small-molecule epigenetic modulator, was determined previously to enable skeletal muscle transcription in cell lines non-permissive to myogenesis. Moreover, 5AC exposure was further determined to enhance terminal differentiation by the C2C12 cell line.
# O2KM cell line = test: 5AC effects on MYF5 expression and terminal differentiation of O2KM; assay type: cell-based, porcine
# Experimental: Therefore, a epigenetic modulator was used to enhance the expression of myogenic genes in cells otherwise non-permissive to myogenesis and enhance terminal differentiation of lineage committed myoctes to mature myofibers. […] This distinction may explained by the enhanced expression of the myogenic transcription factor MYF5 observed only in the 5AC-exposed O2KM prior to and following 48 hours of DOX withdrawal
# as §1
# N-2 and B-27 supplements were used exclusively as serum replacements. Cultures were differentiated for up to 6d following under 20% O2 following induction regimens (FIG. 20A). […] Contractile potential of terminally differentiating skeletal muscle myotubes was validated by (1) structural development of well-organized sarcomeres, as shown in FIG. 20G; (2) asynchronous spontaneous contraction, as shown in FIG. 21A; (3) contractile stimulation and synchronization by field stimulation, as shown in FIG. 21B; (4) caffeine-stimulated contraction, as shown in FIG. 21C; and (5) acetylcholine-stimulated contraction, as shown in FIG. 21D.
# piPSC modification with an integrated MyoDER expression cassette. […] Arrows and boxes indicate promoter and gene sequences, respectively. […] MyoDER was detected with an antibody raised against a MyoD peptide. […] Endogenous MYOD1 (˜45 kD, expected) was not detected. […] Double Arrow: Partially resolved MYOG isoforms. FIGS. 19A and 19B. Determinants of MYF5 activation: Western blot analyses. […] In the absence of CHIR99021, the 17 kD cleaved caspase isoform was not observed in the KOSR supplemented differentiation milieu, as in contrast to observations in the N-2 and B-27 supplemented differentiation milieu (FIG. 17A, FIG. 19A). […] MYODER-modified piPSC were cultured 3 days in self-renewal or expansion milieu. […] TUBA is detected as an internal protein loading control.
# murine C2C12 myoblast = test: terminal differentiation of C2C12 myoblasts, scored by size and extent of myotube formation; assay type: cell-based; settings: low-mitogen differentiation cultures (2% horse serum/DMEM)
# O2K cell line [1] = test: cell death / survival of differentiating O2K (phase contrast, cell adhesion, CPP32 cleavage, Annexin V); assay type: cell-based, porcine; settings: SRM basal medium without hLIF, DOX, PD032591 and PD173074
# From the text: (§2) 1. As CHIR99021 repressed cell death, supported differentiation toward paraxial mesoderm by the differentiating O2K cell line and enhanced terminal differentiation by the C2C12 cell line, precedent was established to retain the compound in all culture stages.
# TUBA is detected an internal protein loading control.
# CTNNB1 = test: Western blot of CTNNB1 level and phosphorylation in differentiating O2K; assay type: cell-based, porcine; settings: primordial differentiation
# From the text: TUBA detected as an internal protein loading control. […] TUBA detection is shown as an internal protein loading control.
# O2K cell line [2] = test: differentiation marker Western blot (PAX3, POU5F1, KLF4) in O2K; assay type: cell-based, porcine; settings: differentiating O2K, CHIR99021 supplemented basal medium
# From the text: as §2
# TUBA detected as an internal protein loading control. FIG. 13A indicates ratios of p-CTNNB1/CTNNB1 bands. FIG. 13B indicates ratios of CTNNB1/TUBA bands. […] TUBA detection is shown as an internal protein loading control.
# piPSC-derived myotubes = test: calcium transient activity (Fluo-4 AM) in piPSC-derived myotubes; assay type: cell-based, porcine; settings: d6 myotubes, 10 mM, field of view
# From the text: To quantify contraction cycles, myotube cultures were stained with Fluo-4 AM calcium dye, washed, and image sequences were captured by confocal microscopy. Dynamic signaling events of an entire field of view (FOV) or single cells were traced and plotted over the imaging course. [s]=seconds.
smiles,measurement,setting,value
"Nc1ncn([C@@H]2O[C@H](CO)[C@@H](O)[C@H]2O)c(=O)n1 [5AC, 5-Aza-Cytidine]",highest dose tolerated,undifferentiated O2KM,250 nM
same,MYF5 expression after expansion culture,"O2KM cell line; MyoDER-modified piPSC, 3 days, in the presence of DOX and CHIR99021",supported detectable MYF5 expression levels
same,MYF5 expression,O2KM cell line; O2KM derived myocytes cultured in the presence of 5AC,MYF5 expression was enhanced
same,myotube morphology in terminal differentiation,O2KM cell line; O2KM exposed to 5AC during expansion and induction regimens,"formed refractive, anisotropic myotubes"
same,"activation of endogenous MYF5 expression, dependence on CHIR99021","O2KM cell line; unmodified piPSC, 2d differentiation milieu with KOSR, no 3i, DOX, hLIF, E2",dependent upon simultaneous CHIR99021 exposure
Cc1c[nH]c(-c2cnc(NCCNc3ccc(C#N)cn3)nc2-c2ccc(Cl)cc2Cl)n1 [CHIR99021],terminal differentiation of C2C12 into skeletal myotubes,murine C2C12 myoblast,enhanced terminal differentiation into skeletal myotubes
same,cell survival during differentiation,O2K cell line [1],supported both cell survival during differentiation
same,CTNNB1 stabilization and phosphorylation status,CTNNB1,"stabilizes and modulates the phosphorylation status of the GSK3β substrate, CTNNB1"
same,"paraxial mesoderm lineage specification (PAX3 expression, loss of POU5F1 and KLF4)",O2K cell line [2],supported pre-myogenic paraxial mesoderm lineage specification of differentiating O2K
Cn1c(=O)c2c(ncn2C)n(C)c1=O [caffeine],calcium transient activation,piPSC-derived myotubes,calcium transient activation
